In patent US11530221B2, “Pyrimido[4,5-d]pyrimidin-2-one derivatives as protein kinase inhibitors” (KOREA INSTITUTE OF SCIENCE AND TECHNOLOGY, priority 2019, dated 2022):
Like-named read-outs stand apart in the source and are kept apart here. Square brackets hold non-standard residues; d marks the D form. Peptide text beside a SMILES is read from it. * marks the point of attachment. X1 = Cc1ccc(Nc2ncc3c(n2)N(C)C(=O)N(c2cc(C(=O)*)ccc2C)C3)cn1; Pip = O=C(O)[C@@H]1CCCCN1; Ac4c = NC1(C(=O)O)CCC1; Ac3c = NC1(C(=O)O)CC1; Aib = CC(C)(N)C(=O)O

Assays:
Assay type in all cases: biochemical
c-Src = c-Src (Homo sapiens, UniProt P12931); assay: IC50 inhibitory activity against c-Src kinase
Sequence of c-Src (P12931 whole entry): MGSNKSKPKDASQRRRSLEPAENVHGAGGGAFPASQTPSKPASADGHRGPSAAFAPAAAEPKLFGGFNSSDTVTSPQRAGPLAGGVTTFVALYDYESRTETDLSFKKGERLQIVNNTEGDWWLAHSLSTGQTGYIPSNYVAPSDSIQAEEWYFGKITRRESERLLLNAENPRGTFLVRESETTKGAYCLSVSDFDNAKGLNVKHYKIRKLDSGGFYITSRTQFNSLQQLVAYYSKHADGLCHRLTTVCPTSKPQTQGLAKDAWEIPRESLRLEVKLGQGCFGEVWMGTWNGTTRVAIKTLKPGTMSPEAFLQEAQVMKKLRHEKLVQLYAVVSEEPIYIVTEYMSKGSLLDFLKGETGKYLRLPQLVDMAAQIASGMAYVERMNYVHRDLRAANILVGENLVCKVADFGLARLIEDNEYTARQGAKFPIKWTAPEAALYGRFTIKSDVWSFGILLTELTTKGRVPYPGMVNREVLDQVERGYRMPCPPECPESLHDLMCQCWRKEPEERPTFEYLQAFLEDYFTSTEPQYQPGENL
Experimental: (§1) IC50 values were calculated by measuring the inhibitory activity against LCK, c-Src, p38a/MAPK14, ABL1, DDR1 and FGR kinases of the compounds of the present invention.

LCK = LCK (Homo sapiens, UniProt P06239); assay: IC50 inhibitory activity against LCK kinase
Sequence of LCK (P06239 whole entry): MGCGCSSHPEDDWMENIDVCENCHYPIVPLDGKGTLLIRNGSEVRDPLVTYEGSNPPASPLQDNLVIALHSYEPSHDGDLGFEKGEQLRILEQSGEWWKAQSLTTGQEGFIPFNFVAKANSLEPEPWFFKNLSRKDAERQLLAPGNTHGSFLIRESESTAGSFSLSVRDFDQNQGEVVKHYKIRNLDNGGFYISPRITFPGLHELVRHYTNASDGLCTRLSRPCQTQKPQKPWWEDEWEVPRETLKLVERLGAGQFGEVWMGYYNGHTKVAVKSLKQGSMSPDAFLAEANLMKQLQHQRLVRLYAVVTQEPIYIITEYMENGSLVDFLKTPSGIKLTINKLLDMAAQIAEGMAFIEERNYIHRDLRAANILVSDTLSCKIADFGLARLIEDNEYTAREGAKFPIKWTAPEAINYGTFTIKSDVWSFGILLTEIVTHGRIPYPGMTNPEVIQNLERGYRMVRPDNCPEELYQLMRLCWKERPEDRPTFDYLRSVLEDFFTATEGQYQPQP
Experimental: as §1

ABL1 = ABL1 (Homo sapiens, UniProt P00519); assay: IC50 inhibitory activity against ABL1 kinase; conditions: read-out: ABL1 IC50
Sequence of ABL1 (P00519 whole entry): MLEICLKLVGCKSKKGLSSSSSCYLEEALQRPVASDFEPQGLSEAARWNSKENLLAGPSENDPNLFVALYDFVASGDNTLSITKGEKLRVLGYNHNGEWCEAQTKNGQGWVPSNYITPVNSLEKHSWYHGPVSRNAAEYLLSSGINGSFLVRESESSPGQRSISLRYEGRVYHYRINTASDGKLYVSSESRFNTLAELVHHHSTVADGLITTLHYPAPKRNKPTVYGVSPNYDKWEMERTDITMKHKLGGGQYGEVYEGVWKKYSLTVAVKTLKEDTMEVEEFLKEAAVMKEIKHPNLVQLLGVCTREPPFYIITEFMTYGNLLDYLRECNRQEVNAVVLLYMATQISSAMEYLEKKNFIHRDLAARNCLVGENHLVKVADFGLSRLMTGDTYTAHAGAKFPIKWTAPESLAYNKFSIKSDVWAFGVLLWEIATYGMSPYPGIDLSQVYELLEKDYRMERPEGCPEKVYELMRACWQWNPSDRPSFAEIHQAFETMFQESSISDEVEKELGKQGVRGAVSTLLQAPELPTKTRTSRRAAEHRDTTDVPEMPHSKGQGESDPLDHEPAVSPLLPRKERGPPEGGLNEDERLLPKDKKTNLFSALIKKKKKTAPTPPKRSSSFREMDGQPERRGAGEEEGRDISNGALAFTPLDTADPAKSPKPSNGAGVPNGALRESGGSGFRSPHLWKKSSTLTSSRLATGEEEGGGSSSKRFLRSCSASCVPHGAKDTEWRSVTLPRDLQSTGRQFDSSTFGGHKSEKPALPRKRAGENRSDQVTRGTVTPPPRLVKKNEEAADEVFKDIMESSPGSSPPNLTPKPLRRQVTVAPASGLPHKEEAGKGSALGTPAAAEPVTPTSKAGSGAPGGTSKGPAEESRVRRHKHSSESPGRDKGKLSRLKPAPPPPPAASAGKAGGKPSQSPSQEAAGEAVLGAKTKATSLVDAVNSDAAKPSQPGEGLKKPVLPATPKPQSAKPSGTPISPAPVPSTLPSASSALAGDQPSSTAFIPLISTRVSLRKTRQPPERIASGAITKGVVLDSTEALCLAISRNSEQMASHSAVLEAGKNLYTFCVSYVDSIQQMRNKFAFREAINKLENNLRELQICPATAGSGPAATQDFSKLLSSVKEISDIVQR
Experimental: as §1

SMILES | IC50 (c-Src; read-out: c-Src IC50) [nM] | IC50 (LCK; read-out: LCK IC50) [nM] | IC50 (ABL1) [nM] | IC50 (c-Src) [nM] | IC50 (LCK) [nM]
CC[C@H](C)[C@H](NC(=O)c1ccc(C)c(N2Cc3cnc(Nc4ccc(C)nc4)nc3N(C)C2=O)c1)C(=O)N1CCC[C@H]1C(=O)NC(C)(C)C(=O)N[C@@H](CC(C)C)C(=O)N(C)C [Example 16, (S)—N-(1-(((S)-1-(dimethylamino)-4-methyl-1-oxopentan-2-yl)amino)-2-methyl-1-oxopropan-2-yl)-1-((4-methyl-3-(1-methyl-7-((6-methylpyridin-3-yl)amino)-2-oxo-1,4-dihydropyrimido[4,5-d]pyrimidin-3(2H)-yl)benzoyl)-L-isoleucyl)pyrrolidine-2-carboxamide] (X1-IP[Aib]L-NMe2) | 200 to 400 | 1 to 200 | 1 to 200 | – | –
Cc1ccc(Nc2ncc3c(n2)N(C)C(=O)N(c2cc(C(=O)N[C@@H](Cc4ccccc4)C(=O)N4CCC[C@@H]4C(=O)N[C@H](C(=O)N[C@H](C)c4ccccc4)C(C)C)ccc2C)C3)cn1 [Example 7, (R)—N—((S)-3-methyl-1-oxo-1-(((R)-1-phenylethyl)amino)butan-2-yl)-1-((4-methyl-3-(1-methyl-7-((6-methylpyridin-3-yl)amino)-2-oxo-1,4-dihydropyrimido[4,5-d]pyrimidin-3(2H)-yl)benzoyl)-L-phenylalanyl)pyrrolidine-2-carboxamide] | 400 to 600 | 1 to 200 | – | – | –
Cc1ccc(Nc2ncc3c(n2)N(C)C(=O)N(c2cc(NC(=O)c4ccc5c(c4)NC(=O)[C@H](Cc4cccc(F)c4)N=C5c4ccccc4)ccc2C)C3)cn1 [Example 27, (S)-3-(3-fluorobenzyl)-N-(4-methyl-3-(1-methyl-7-((6-methylpyridin-3-yl)amino)-2-oxo-1,4-dihydropyrimido[4,5-d]pyrimidin-3(2H)-yl)phenyl)-2-oxo-5-phenyl-2,3-dihydro-1H-benzo[e][1,4]diazepine-8-carboxamide] | 1 to 200 | 1 to 200 | – | – | –
Cc1ccc(Nc2ncc3c(n2)N(C)C(=O)N(c2cc(C(=O)N[C@H](C(=O)N4CCC[C@@H]4C(=O)NC(C)(C)C(=O)N[C@H](C(=O)N(C)C)C(C)C)C(C)C)ccc2C)C3)cn1 [Example 23, (R)—N-(1-(((S)-1-(dimethylamino)-3-methyl-1-oxobutan-2-yl)amino)-2-methyl-1-oxopropan-2-yl)-1-((4-methyl-3-(1-methyl-7-((6-methylpyridin-3-yl)amino)-2-oxo-1,4-dihydropyrimido[4,5-d]pyrimidin-3(2H)-yl)benzoyl)-L-valyl)pyrrolidine-2-carboxamide] (X1-V[dP][Aib]V-NMe2) | > 600 | > 600 | – | – | –
C=CCCC1=N[C@@H](CC(=O)Nc2ccc(C)c(N3Cc4cnc(Nc5ccc(C)nc5)nc4N(C)C3=O)c2)C(=O)Nc2ccccc21 [Example 44, (S)-2-(5-(but-3-en-1-yl)-2-oxo-2,3-dihydro-1H-benzo[e][1,4]diazepin-3-yl)-N-(4-methyl-3-(1-methyl-7-((6-methylpyridin-3-yl)amino)-2-oxo-1,4-dihydropyrimido[4,5-d]pyrimidin-3(2H)-yl)phenyl)acetamide] | 1 to 200 | 1 to 200 | – | – | –
Cc1ccc(Nc2ncc3c(n2)N(C)C(=O)N(c2cc(NC(=O)[C@H](Cc4c[nH]c5ccccc45)NC(=O)c4ccc([N+](=O)[O-])c(OCC(C)C)c4)ccc2C)C3)cn1 [Example 55] | – | – | > 600 | – | –
C=CCCC1=N[C@@H](CC(=O)Nc2ccc(C)c(N3Cc4cnc(Nc5ccc(C)nc5)nc4N(C)C3=O)c2)C(=O)N(C)c2ccccc21 [Example 45, (S)-2-(5-(but-3-en-1-yl)-1-methyl-2-oxo-2,3-dihydro-1H-benzo[e][1,4]diazepin-3-yl)-N-(4-methyl-3-(1-methyl-7-((6-methylpyridin-3-yl)amino)-2-oxo-1,4-dihydropyrimido[4,5-d]pyrimidin-3(2H)-yl)phenyl)acetamide] | 1 to 200 | 1 to 200 | – | – | –
Cc1ccc(Nc2ncc3c(n2)N(C)C(=O)N(c2cc(C(=O)N[C@H](C(=O)N4CCC[C@H]4C(=O)NC4(C(=O)N[C@@H](CC(C)C)C(=O)N(C)C)CC4)C(C)C)ccc2C)C3)cn1 [Example 4, (S)—N-(1-(((S)-1-(dimethylamino)-4-methyl-1-oxopentan-2-yl)carbamoyl)cyclopropyl)-1-((4-methyl-3-(1-methyl-7-((6-methylpyridin-3-yl)amino)-2-oxo-1,4-dihydropyrimido[4,5-d]pyrimidin-3(2H)-yl)benzoyl)-L-valyl)pyrrolidine-2-carboxamide] (X1-VP[Ac3c]L-NMe2) | – | – | – | 200 to 400 | 1 to 200
Cc1ccc(Nc2ncc3c(n2)N(C)C(=O)N(c2cc(C(=O)N[C@H](C(=O)N4CCCC[C@H]4C(=O)NC(C)(C)C(=O)N[C@@H](CC(C)C)C(=O)N(C)C)C(C)C)ccc2C)C3)cn1 [Example 13, (S)—N-(1-(((S)-1-(dimethylamino)-4-methyl-1-oxopentan-2-yl)amino)-2-methyl-1-oxopropan-2-yl)-1-((4-methyl-3-(1-methyl-7-((6-methylpyridin-3-yl)amino)-2-oxo-1,4-dihydropyrimido[4,5-d]pyrimidin-3(2H)-yl)benzoyl)-L-valyl)piperidine-2-carboxamide] (X1-V[Pip][Aib]L-NMe2) | 400 to 600 | 1 to 200 | – | – | –
Cc1ccc(Nc2ncc3c(n2)N(C)C(=O)N(c2cc(C(=O)N[C@H](C(=O)N4CCC[C@H]4C(=O)NC(C)(C)C(=O)N[C@H](C(=O)N(C)C)C(C)C)C(C)C)ccc2C)C3)cn1 [Example 22, (S)—N-(1-(((S)-1-(dimethylamino)-3-methyl-1-oxobutan-2-yl)amino)-2-methyl-1-oxopropan-2-yl)-1-((4-methyl-3-(1-methyl-7-((6-methylpyridin-3-yl)amino)-2-oxo-1,4-dihydropyrimido[4,5-d]pyrimidin-3(2H)-yl)benzoyl)-L-valyl)pyrrolidine-2-carboxamide] (X1-VP[Aib]V-NMe2) | > 600 | > 600 | – | – | –
Cc1ccc(Nc2ncc3c(n2)N(C)C(=O)N(c2cc(NC(=O)c4ccc5c(c4)NC(=O)[C@@H](Cc4ccccc4)N=C5c4ccccc4)ccc2C)C3)cn1 [Example 36, (R)-3-benzyl-N-(4-methyl-3-(1-methyl-7-((6-methylpyridin-3-yl)amino)-2-oxo-1,4-dihydropyrimido[4,5-d]pyrimidin-3(2H)-yl)phenyl)-2-oxo-5-phenyl-2,3-dihydro-1H-benzo[e][1,4]diazepine-8-carboxamide] | 1 to 200 | 1 to 200 | – | – | –
Cc1ccc(Nc2ncc3c(n2)N(C)C(=O)N(c2cc(C(=O)N[C@@H](Cc4ccccc4)C(=O)N4CCC[C@H]4C(=O)NC(C)(C)C(=O)N[C@H](C(=O)N(C)C)C(C)C)ccc2C)C3)cn1 [Example 24, (S)—N-(1-(((S)-1-(dimethylamino)-3-methyl-1-oxobutan-2-yl)amino)-2-methyl-1-oxopropan-2-yl)-1-((4-methyl-3-(1-methyl-7-((6-methylpyridin-3-yl)amino)-2-oxo-1,4-dihydropyrimido[4,5-d]pyrimidin-3(2H)-yl)benzoyl)-L-phenylalanyl)pyrrolidine-2-carboxamide] (X1-FP[Aib]V-NMe2) | > 600 | 1 to 200 | – | – | –
Cc1ccc(Nc2ncc3c(n2)N(C)C(=O)N(c2cc(NC(=O)c4ccc5c(c4)NC(=O)[C@H](Cc4ccccc4C)N=C5c4ccccc4)ccc2C)C3)cn1 [Example 29, (S)—N-(4-methyl-3-(1-methyl-7-((6-methylpyridin-3-yl)amino)-2-oxo-1,4-dihydropyrimido[4,5-d]pyrimidin-3(2H)-yl)phenyl)-3-(2-methylbenzyl)-2-oxo-5-phenyl-2,3-dihydro-1H-benzo[e][1,4]diazepine-8-carboxamide] | 1 to 200 | 1 to 200 | – | – | –
CC1=N[C@@H](CC(C)C)C(=O)N(Cc2ccccc2)c2cc(C(=O)Nc3ccc(C)c(N4Cc5cnc(Nc6ccc(C)nc6)nc5N(C)C4=O)c3)ccc21 [Example 41, (S)-1-benzyl-3-isobutyl-5-methyl-N-(4-methyl-3-(1-methyl-7-((6-methylpyridin-3-yl)amino)-2-oxo-1,4-dihydropyrimido[4,5-d]pyrimidin-3(2H)-yl)phenyl)-2-oxo-2,3-dihydro-1H-benzo[e][1,4]diazepine-8-carboxamide] | 1 to 200 | 1 to 200 | – | – | –
Cc1ccc(Nc2ncc3c(n2)N(C)C(=O)N(c2cc(C(=O)N[C@H](C(=O)N4CCC[C@@H]4C(=O)NCC(=O)N[C@@H](CC(C)C)C(=O)N(C)C)C(C)C)ccc2C)C3)cn1 [Example 5, (R)—N-(2-(((S)-1-(dimethylamino)-4-methyl-1-oxopentan-2-yl)amino)-2-oxoethyl)-1-((4-methyl-3-(1-methyl-7-((6-methylpyridin-3-yl)amino)-2-oxo-1,4-dihydropyrimido[4,5-d]pyrimidin-3(2H)-yl)benzoyl)-L-valyl)pyrrolidine-2-carboxamide] (X1-V[dP]GL-NMe2) | – | – | – | > 600 | 1 to 200
Cc1ccc(Nc2ncc3c(n2)N(C)C(=O)N(c2cc(C(=O)N[C@H](C(=O)N4CCC[C@H]4C(=O)NC4(C(=O)N[C@@H](CC(C)C)C(=O)N(C)C)CCC4)C(C)C)ccc2C)C3)cn1 [Example 12, (S)—N-(1-(((S)-1-(dimethylamino)-4-methyl-1-oxopentan-2-yl)carbamoyl)cyclobutyl)-1-((4-methyl-3-(1-methyl-7-((6-methylpyridin-3-yl)amino)-2-oxo-1,4-dihydropyrimido[4,5-d]pyrimidin-3(2H)-yl)benzoyl)-L-valyl)pyrrolidine-2-carboxamide] (X1-VP[Ac4c]L-NMe2) | – | – | – | > 600 | 1 to 200
Cc1ccc(Nc2ncc3c(n2)N(C)C(=O)N(c2cc(NC(=O)c4ccc5c(c4)N(CC(=O)NCc4ccccc4)C(=O)[C@H](CC(C)C)N=C5c4ccccc4)ccc2C)C3)cn1 [Example 43, (S)-1-(2-(benzylamino)-2-oxoethyl)-3-isobutyl-N-(4-methyl-3-(1-methyl-7-((6-methylpyridin-3-yl)amino)-2-oxo-1,4-dihydropyrimido[4,5-d]pyrimidin-3(2H)-yl)phenyl)-2-oxo-5-phenyl-2,3-dihydro-1H-benzo[e][1,4]diazepine-8-carboxamide] | 1 to 200 | 1 to 200 | – | – | –
